Laboratory results from ChEMBL document CHEMBL1201862, “PubChem BioAssay data set” (2004).
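Five compound concentrations were applied to cells in 96-well plates for 48 hours; endpoints were derived by simple linear interpolation of the resulting dose-response curve. GI50 is the concentration that inhibits growth by half.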 Calls of active or inactive are those of the source. Rule as the data show it: active = GI50 up to about 1.1 µM and inactive = higher.

Tests used:
Assay in all cases: NCI tumour cell line growth inhibition, 48 h
HOP-92 = tested on: HOP-92
EKVX = tested on: EKVX
PC-3 = tested on: PC-3
MCF7 = tested on: MCF7
DU-145 = tested on: DU-145
SN12C = tested on: SN12C
RPMI-8226 = tested on: RPMI-8226
SR = tested on: SR
OVCAR-4 = tested on: OVCAR-4
MDA-MB-231 = tested on: MDA-MB-231
SF-295 = tested on: SF-295
Malme-3M = tested on: Malme-3M
HCC 2998 = tested on: HCC 2998
NCI-H23 = tested on: NCI-H23
SNB-75 = tested on: SNB-75
HL-60 = tested on: HL-60
M14 = tested on: M14
MOLT-4 = tested on: MOLT-4
UO-31 = tested on: UO-31
T47D = tested on: T47D

Measured: GI50

CC1CC[C@@]2(OC1)OC1C[C@H]3[C@@H]4CC[C@H]5CC(OC6OC(CO)C(OC7OC(CO)C(O)C(O)C7O)C(O)C6O)CCC5(C)[C@H]4CCC3(C)C1[C@@H]2C (stereo not given in full)
inactive: HOP-92 8.57 µM | EKVX 5.33 µM | PC-3 7.45 µM | MCF7 5.85 µM | DU-145 8.3 µM | SN12C 7.35 µM | RPMI-8226 13.7 µM | SR 9.59 µM | OVCAR-4 8.81 µM | MDA-MB-231 9.1 µM | SF-295 8.55 µM | Malme-3M 8.13 µM | HCC 2998 5.85 µM | NCI-H23 8.81 µM | SNB-75 9.93 µM | HL-60 8.87 µM | M14 8.89 µM | MOLT-4 9.14 µM | UO-31 11.1 µM | T47D 9.31 µM

COc1cc(C)cc(C(=O)OCc2ccccc2)c1C1=C(Cl)C(=O)C(Cl)=CC1=O
inactive: HOP-92 3.51 µM | EKVX > 10 µM | PC-3 > 10 µM | MCF7 > 9.42 µM | DU-145 > 10 µM | SN12C > 10 µM | RPMI-8226 > 5.79 µM | SR 4.13 µM | OVCAR-4 > 5.13 µM | MDA-MB-231 > 10 µM | SF-295 > 10 µM | Malme-3M > 10 µM | HCC 2998 > 10 µM | NCI-H23 > 10 µM | SNB-75 > 10 µM | HL-60 1.86 µM | M14 > 10 µM | MOLT-4 2.42 µM | UO-31 3.25 µM | T47D 6.44 µM
